A word on the melting point: it is the temperature of the solid-liquid transition. `CNCC[C@@H](Oc1cncc2sccc12)c1ccccc1.Cl` had a melting point of 68.1 °C.

The values are drawn from patent US7410982B2, “Propanamine derivatives as serotonin and norepinephrine reuptake inhibitors” (Eli Lilly and Company, priority 2002, dated 2008).
